Laboratory results taken from patent US10562912B2 (C&C Research Laboratories, priority 2013, dated 2020).

How the values were obtained:
Assay type in all cases: cell-based
U266 = test: Cell growth inhibition assay, blood cancer cell line U266; conditions: Homo sapiens, U-266 blood cancer cell line
Procedure: (§1) The inhibitory effects of the compounds of the present invention against the growth of cancer cells were evaluated as shown below. The cancer cell lines including stomach cancer cell line (AGS), breast cancer cell lines (MDA-MB-231, MDA-MB-468, and BT-549), prostate cancer cell lines (LNCaP and DU-145), colon cancer cell line (HCT116), ovarian cancer cell line (SW626), liver cancer cell line (Hep3B), kidney cancer cell line (ACHN), lung cancer cell line (NCI-H23) and blood cancer cell lines (HEL92.1.7 and U266) were cultured under the protocol provided by each supplier. A medium supplemented with 10 ng/mL of IL-6 was used for LNCaP, a prostate cancer cell line, when treated with a drug. Each type of cells to be used in experiments were sub-cultured in a 96-well plate by counting the exact number of cells using Tali™ Image-based Cytometer (Life Technologies). In a 96-well plate, AGS, HCT116, and DU-145 were employed with 3,000 cells/well; NCI-H23, SW626, Hep3B, ACHN, BT-549, MDA-MB-231, HEL92.1.7, and U266 were employed with 5,000 cells/well; and LNCaP and MDA-MB-468 were employed with 10,000 cells/well. The cells were treated with the compounds listed in Examples which were diluted in various concentrations. Upon completion of the compounds treatment, AGS, HCT116, SW626, DU145, NCI-H23, Hep3B, ACHN, BT-549, LNCaP, HEL92.1.7, and U266 cells were cultured at 37° C. under 5% CO2 for from 72 to 96 hours, and MDA-MB-231 and MDA-MB-468 cells were cultured at 37° C. in air for from 72 to 96 hours. Subsequently, the cells were observed under microscope and drug precipitation and particular findings were investigated and recorded. And then, the 96-well plate was placed at room temperature for 30 minutes, added with 20 μL/well of CellTiter-Glo solution (Cat No. G7573, Promega) and shaken for 10 minutes, followed by being subjected to the measurement using PHERAstar™ microplate reader (BMG LABTECH) according to the supplier's general luminometer protocol. Wells where only culture liquid added without cell plating were used as a negative control, whereas wells where culture liquid containing 0.1% DMSO instead of the compounds listed in Examples were used as a positive control.

LNCaP = test: Cell growth inhibition assay, prostate cancer cell line LNCaP (medium with 10 ng/mL IL-6); conditions: Homo sapiens, medium supplemented with 10 ng/mL of IL-6, 10,000 cells/well
DU-145 = test: Cell growth inhibition assay, prostate cancer cell line DU-145; conditions: Homo sapiens, DU-145 prostate cancer cell line
Summary of the method: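 Luminescent CellTiter-Glo readout of viable cells after 72–96 h compound exposure (37° C., 5% CO2). Seeding: 3,000 cells/well for DU-145 and HCT116, 5,000 cells/well for SW626. Controls were medium without cells and 0.1% DMSO vehicle.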

MDA-MB-231 = test: Cell growth inhibition assay, breast cancer cell line MDA-MB-231; conditions: Homo sapiens; MDA-MB-231 breast cancer cell line, 5,000 cells/well
STAT3 = molecular target: T1, STAT3 (Homo sapiens, UniProt P40763); test: STAT3 reporter gene assay (luciferase), LNCaP stable cell line (pSTAT3-TA-luc), IL-6 stimulation
T1 construct: plasmid pSTAT3-TA-luc), which contains a stably operating STAT3 promoter; endogenous in cells
Summary of the method: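 Cytotoxicity was run on a duplicate plate with CellTiter-Glo, while the other plate gave luciferase read-outs from lysed LNCaP pSTAT3-TA-luc reporter cells. Cells were treated with graded compound concentrations plus IL-6 (10 ng/mL final) for 24–48 h in 3% DCC-FBS medium. Unstimulated and stimulated wells served as negative and positive controls.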

HEL92.1.7 = test: Cell growth inhibition assay, blood cancer cell line HEL92.1.7; conditions: Homo sapiens, HEL 92.1.7, HEL92.1.7 blood cancer cell line
Summary of the method: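 Cells were seeded at 3,000/well (HCT116, DU-145) or 5,000/well (SW626 and the others) and exposed to serial compound dilutions for 72 to 96 h at 37 °C under 5% CO2. Viability was read as CellTiter-Glo luminescence against 0.1% DMSO and cell-free wells.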

MDA-MB-468 = test: Cell growth inhibition assay, breast cancer cell line MDA-MB-468; conditions: Homo sapiens, MDA-MB-468 breast cancer cell line
Procedure: as §1

Hep3B = test: Cell growth inhibition assay, liver cancer cell line Hep3B; conditions: Homo sapiens
Procedure: as §1

BT-549 = test: Cell growth inhibition assay, breast cancer cell line BT-549; conditions: Homo sapiens, BT-549 breast cancer cell line
Procedure: as §1

SW626 = test: Cell growth inhibition assay, ovarian cancer cell line SW626; conditions: Homo sapiens
Procedure: as §1, with “Wells where only culture liquid added without cell plating were used as a negative control, whereas wells where culture liquid containing 0.1% DMSO instead of the compounds listed in Examples were used as a positive control.” left out

ACHN = test: Cell growth inhibition assay, kidney cancer cell line ACHN; conditions: Homo sapiens
Procedure: as §1, with “Wells where only culture liquid added without cell plating were used as a negative control, whereas wells where culture liquid containing 0.1% DMSO instead of the compounds listed in Examples were used as a positive control.” left out

AGS = test: Cell growth inhibition assay, stomach cancer cell line AGS; conditions: Homo sapiens; AGS stomach cancer cell line, 3,000 cells/well
HCT116 = test: Cell growth inhibition assay, colon cancer cell line HCT116; conditions: Homo sapiens, HCT-116 colon cancer cell line
Procedure: as §1, with “Wells where only culture liquid added without cell plating were used as a negative control, whereas wells where culture liquid containing 0.1% DMSO instead of the compounds listed in Examples were used as a positive control.” left out

NCI-H23 = test: Cell growth inhibition assay, lung cancer cell line NCI-H23; conditions: Homo sapiens
Procedure: as §1, with “Wells where only culture liquid added without cell plating were used as a negative control, whereas wells where culture liquid containing 0.1% DMSO instead of the compounds listed in Examples were used as a positive control.” left out

T1 sequence (P40763 whole entry): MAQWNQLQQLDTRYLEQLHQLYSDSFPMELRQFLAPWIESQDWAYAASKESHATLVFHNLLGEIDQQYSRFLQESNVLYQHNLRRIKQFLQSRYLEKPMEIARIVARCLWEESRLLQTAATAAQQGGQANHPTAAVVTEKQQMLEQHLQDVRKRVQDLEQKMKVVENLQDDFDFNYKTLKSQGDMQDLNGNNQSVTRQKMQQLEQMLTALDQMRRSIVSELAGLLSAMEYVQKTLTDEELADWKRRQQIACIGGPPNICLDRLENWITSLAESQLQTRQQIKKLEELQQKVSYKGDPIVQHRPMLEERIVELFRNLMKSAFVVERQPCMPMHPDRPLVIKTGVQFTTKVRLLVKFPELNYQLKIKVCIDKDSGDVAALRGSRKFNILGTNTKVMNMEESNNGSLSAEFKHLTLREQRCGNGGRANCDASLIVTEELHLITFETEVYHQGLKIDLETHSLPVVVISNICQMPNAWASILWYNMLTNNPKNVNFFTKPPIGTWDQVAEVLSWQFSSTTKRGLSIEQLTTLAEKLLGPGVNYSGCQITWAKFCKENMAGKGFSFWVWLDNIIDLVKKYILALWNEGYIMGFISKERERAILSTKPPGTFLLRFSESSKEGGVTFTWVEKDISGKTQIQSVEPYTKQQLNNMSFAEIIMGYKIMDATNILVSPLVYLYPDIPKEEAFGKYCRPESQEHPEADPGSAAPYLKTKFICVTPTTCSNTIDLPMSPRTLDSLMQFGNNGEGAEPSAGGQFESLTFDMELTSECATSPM

SMILES	IC50 (U266)	IC50 (LNCaP)	IC50 (DU-145)	IC50 (MDA-MB-231)	IC50 (STAT3)	IC50 (HEL92.1.7)	IC50 (MDA-MB-468)	IC50 (Hep3B)	IC50 (BT-549)	IC50 (SW626)	IC50 (ACHN)	IC50 (AGS)	IC50 (HCT116)	IC50 (NCI-H23)
CC(C)(C)OC(=O)N1CCN(Cc2cccc(C(C)(C)c3cc(Br)cc(NC(=O)c4cc5cc(NS(C)(=O)=O)ccc5s4)c3)c2)CC1 [Example 116, tert-butyl 4-(3-(2-(3-bromo-5-(5-(methylsulfonamido)benzo[b]thiophene-2-carboxamido)phenyl)propan-2-yl)benzyl)piperazine-1-carboxylate]	0.16 µM	0.22 µM	0.058 µM	0.055 µM	0.053 µM	0.13 µM	–	–	–	–	–	–	–	–
COc1cc(OC(F)(F)F)cc(C(C)(C)c2cccc(NC(=O)c3cc4ccc(NS(C)(=O)=O)cc4[nH]3)c2)c1 [Example 9, N-(3-(2-(3-methoxy-5-(trifluoromethoxy)phenyl)propan-2-yl)phenyl)-6-(methylsulfonamido)-1H-indole-2-carboxamide]	0.74 µM	0.78 µM	0.035 µM	0.012 µM	0.056 µM	0.95 µM	–	–	–	–	–	–	–	–
COc1cc(OC(F)(F)F)cc(C(C)(C)c2cc(Br)cc(NC(=O)c3cc4cnc(NS(C)(=O)=O)cc4[nH]3)c2)c1 [Example 98, N-(3-bromo-5-(2-(3-methoxy-5-(trifluoromethoxy)phenyl)propan-2-yl)phenyl)-6-(methylsulfonamido)-1H-pyrrolo[3,2-c]pyridine-2-carboxamide]	0.56 µM	0.76 µM	0.31 µM	0.59 µM	0.098 µM	0.86 µM	–	–	–	–	–	–	–	–
COc1cc(NC(=O)c2cc3cc(NS(C)(=O)=O)ccc3s2)cc(C(C)(C)c2cc(OC)cc(OC(F)(F)F)c2)c1 [Example 34, N-(3-methoxy-5-(2-(3-methoxy-5-(trifluoromethoxy)phenyl)propan-2-yl)phenyl)-5-(methylsulfonamido)benzo[b]thiophene-2-carboxamide]	0.29 µM	0.24 µM	0.023 µM	0.007 µM	0.051 µM	0.2 µM	< 0.00064 µM	0.028 µM	3.4 µM	–	–	–	–	–
CC(C)(c1cccc(CN2CCOCC2)c1)c1cc(Br)cc(NC(=O)c2cc3cc(NS(C)(=O)=O)ccc3s2)c1 [Example 50, N-(3-bromo-5-(2-(3-(morpholinomethyl)phenyl)propan-2-yl)phenyl)-5-(methylsulfonamido)benzo[b]thiophene-2-carboxamide]	0.84 µM	0.76 µM	0.36 µM	0.24 µM	0.15 µM	0.83 µM	–	–	–	–	–	–	–	–
COc1cc(OC(F)(F)F)cc(C(C)(C)c2cc(Br)cc(NC(=O)c3cc4cc(NS(C)(=O)=O)ccc4s3)c2)c1 [Example 36, N-(3-bromo-5-(2-(3-methoxy-5-(trifluoromethoxy)phenyl)propan-2-yl)phenyl)-5-(methylsulfonamido)benzo[b]thiophene-2-carboxamide]	0.22 µM	0.21 µM	0.006 µM	0.005 µM	0.027 µM	0.27 µM	< 0.0076 µM	2.2 µM	0.043 µM	0.013 µM	< 0.00085 µM	0.009 µM	< 0.072 µM	< 0.21 µM
CCOc1cc(OC(F)(F)F)cc(C(C)(C)c2cc(Br)cc(NC(=O)c3cc4ccc(NS(C)(=O)=O)cc4[nH]3)c2)c1 [Example 22, N-(3-bromo-5-(2-(3-ethoxy-5-(trifluoromethoxy)phenyl)propan-2-yl)phenyl)-6-(methylsulfonamido)-1H-indole-2-carboxamide]	0.13 µM	0.29 µM	0.048 µM	0.007 µM	0.11 µM	0.13 µM	–	–	–	–	–	–	–	–
COc1cc(OC(F)(F)F)cc(C(C)(C)c2cc(Br)cc(NC(=O)c3cc4cc(NS(C)(=O)=O)cnc4s3)c2)c1 [Example 56, N-(3-bromo-5-(2-(3-methoxy-5-(trifluoromethoxy)phenyl)propan-2-yl)phenyl)-5-(methylsulfonamido)thieno[2,3-b]pyridine-2-carboxamide]	0.43 µM	0.25 µM	0.069 µM	–	0.072 µM	0.3 µM	–	–	–	–	–	–	–	–
CCOc1cc(OC(F)(F)F)cc(C(C)(C)c2cc(Cl)cc(NC(=O)c3cc4ccc(NS(C)(=O)=O)cc4[nH]3)c2)c1 [Example 59, N-(3-chloro-5-(2-(3-ethoxy-5-(trifluoromethoxy)phenyl)propan-2-yl)phenyl)-6-(methylsulfonamido)-1H-indole-2-carboxamide]	0.16 µM	0.12 µM	0.039 µM	–	0.021 µM	0.42 µM	–	–	–	–	–	–	–	–

More lines, now with the values ahead:

IC50 (U266)	IC50 (LNCaP)	IC50 (DU-145)	IC50 (MDA-MB-231)	IC50 (STAT3)	IC50 (HEL92.1.7)	IC50 (MDA-MB-468)	IC50 (Hep3B)	IC50 (BT-549)	IC50 (SW626)	IC50 (ACHN)	IC50 (AGS)	IC50 (HCT116)	IC50 (NCI-H23)	SMILES
0.13 µM	0.083 µM	0.044 µM	0.027 µM	0.051 µM	0.12 µM	–	–	–	–	–	–	–	–	COc1cc(OC(F)(F)F)cc(C(C)(C)c2cc(Cl)cc(NC(=O)c3cc4ccc(NS(C)(=O)=O)cc4[nH]3)c2)c1 [Example 24, N-(3-chloro-5-(2-(3-methoxy-5-(trifluoromethoxy)phenyl)propan-2-yl)phenyl)-6-(methylsulfonamido)-1H-indole-2-carboxamide]
0.023 µM	0.032 µM	0.009 µM	0.005 µM	0.007 µM	0.044 µM	–	–	–	–	–	–	–	–	COc1cc(OC(F)(F)F)cc(C(C)(C)c2cc(Cl)cc(NC(=O)c3cc4cc(NS(C)(=O)=O)ccc4s3)c2)c1 [Example 42, N-(3-chloro-5-(2-(3-methoxy-5-(trifluoromethoxy)phenyl)propan-2-yl)phenyl)-5-(methylsulfonamido)benzo[b]thiophene-2-carboxamide]
0.014 µM	0.049 µM	0.007 µM	0.001 µM	0.007 µM	0.023 µM	–	–	–	–	–	–	–	–	CC(C)Oc1cc(OC(F)(F)F)cc(C(C)(C)c2cc(Br)cc(NC(=O)c3cc4cc(NS(C)(=O)=O)ccc4s3)c2)c1 [Example 49, N-(3-bromo-5-(2-(3-isopropoxy-5-(trifluoromethoxy)phenyl)propan-2-yl)phenyl)-5-(methylsulfonamido)benzo[b]thiophene-2-carboxamide]
0.044 µM	0.077 µM	0.008 µM	0.002 µM	0.007 µM	0.026 µM	–	–	–	–	–	–	–	–	CCOc1cc(OC(F)(F)F)cc(C(C)(C)c2cc(Br)cc(NC(=O)c3cc4cc(NS(C)(=O)=O)ccc4s3)c2)c1 [Example 48, N-(3-bromo-5-(2-(3-ethoxy-5-(trifluoromethoxy)phenyl)propan-2-yl)phenyl)-5-(methylsulfonamido)benzo[b]thiophene-2-carboxamide]
0.019 µM	0.019 µM	0.006 µM	0.041 µM	0.011 µM	0.024 µM	–	–	–	–	–	–	–	–	CC(C)Oc1cc(OC(F)(F)F)cc(C(C)(C)c2cc(Cl)cc(NC(=O)c3cc4cc(NS(C)(=O)=O)ccc4s3)c2)c1 [Example 68, N-(3-chloro-5-(2-(3-isopropoxy-5-(trifluoromethoxy)phenyl)propan-2-yl)phenyl)-5-(methylsulfonamido)benzo[b]thiophene-2-carboxamide]
